Assay results: patent US20140291659A1, “DIOXAANTHANTHRENE COMPOUND, LAMINATED STRUCTURE AND FORMATION METHOD THEREOF, AND ELECTRONIC DEVICE AND MANUFACTURING METHOD THEREOF” (Sony Corporation, priority 2011, published 2014)

Experiment: Solubility in an organic solvent (toluene)
Assay type: physicochemical
Conditions: for Solubility: grams of PXX compound dissolving in 10 grams of toluene
Method: The melting point and the mesophase transition temperature of the PXX compound can be determined by TG-DTA (thermogravimetry/differential thermal analysis) and DSC (differential scanning calorimetry). Further, solubility in an organic solvent was measured. […] In Table 1, the mesophase transition temperature is denoted as “transition temperature”. […]

| Solubility [g] | Amount dissolved in toluene (in 100 grams of toluene) [grams] | SMILES |
| --- | --- | --- |
| 0.37 | 0.37 | CC(C)c1ccc(-c2ccc3oc4ccc5c(-c6ccc(C(C)C)cc6)ccc6oc7ccc2c3c7-c4c65)cc1 [Comparative Example 2D] |
| 1.5 | – | CC(C)Cc1ccc(-c2ccc3oc4ccc5c(-c6ccc(CC(C)C)cc6)ccc6oc7ccc2c3c7-c4c65)cc1 [Working Example 2A] |
| 1.3 | – | CC(C)CCc1ccc(-c2ccc3oc4ccc5c(-c6ccc(CCC(C)C)cc6)ccc6oc7ccc2c3c7-c4c65)cc1 [Working Example 2B] |
